Where “and” joins values, the source holds several entries; their conditions need not be identical. Equal values may be shown once. Where a name gives a salt, the structure may show the parent alone. Read-outs that look alike come from different tables or passages of the source.
How the values were obtained:
[1] = system: S. hyodysenteriae; conditions: cited from earlier work
[2] = system: Lawsonia intracellularis; test: Lawsonia intracellularis infection of IEC-18 rat enterocyte cell cultures; assay type: cell-based; conditions: for Percentage ratio of Lawsonia intracellularis infection: listed as Valnemulin (ch); for percent of cells infected with Lawsonia intracellularis at 2 µg/mL: IEC-18, 2 μg/ml; for percent of cells infected with Lawsonia intracellularis at 2 µg/mL / percent of cells infected with Lawsonia intracellularis at 8 µg/mL: first strain column, read-out: Percentage ratio of Lawsonia intracellularis infection; for percent of cells infected with Lawsonia intracellularis at 8 µg/mL: IEC-18, 8 μg/ml
Method: The method of Lawson, G. H. K. et al., J. Clin. Microbiol. 31 (1993) 1136-1142 is generally followed, with some modifications (standard Kirby-Bauer disc methods are not applicable to intracellular bacteria):
Cells: Monolayers of IEC-18 rat enterocyte cell cultures (ATCC CRL 1589) are established and maintained by standard cell culture methods. One day old monolayers of dividing cells (approx. 30% confluence) are prepared for infection on day 0, on glass coverslips in small culture vials (Tracs).
Inocula: Batches of three strains of Lawsonia intracellularis are used as inocula. These are derived from pigs afflicted with proliferative enteropathy, of the proliferative haemorrhagic enteropathy (PHE) and porcine intestinal adenomatosis (PIA) forms prepared from pig intestines, and passaged in cell cultures as described in the above Lawson reference. The two PHE strains were partly tested for pathogenicity in pigs as described in McOrist, S. et al., Infect. Immun. 61 (1993) 4286-4292. Inocula batches are collected after several cell passages, and stored frozen at -70° C. in 1 ml vials. Preliminary trials established appropriate dilutions of thawed vials that would result in readily recognizeable cell infections in 5 day trials.
Antibiotics are prepared as 100× stock solutions for each use. Activity of each batch of antibiotic is confirmed by standard Kirby-Bauer disc methods with a laboratory strain of Escherichia coli.
Infections: On day 0, a vial of each strain is thawed, diluted 1/8 to 1/32 with culture medium, for use in four groups 1 to 4.
For group 4 (continuous treatment) this inoculum is initially incubated for one hour at 37° C. in culture medium containing the antibiotic at various concentrations prior to addition to cells.
For group 3 (extracellular activity) this inoculum is prepared in culture medium, containing the antibiotic at various concentrations added immediately prior to time of addition to cells.
For groups 1 (control) and 2 (intracellular activity) inocula are prepared in culture medium free of antibiotics and added to cells. Culture vials (Tracs) with cells with added inocula (+/- antibiotics) in a total of 0.5 ml of medium are placed in steel jars, evacuated to 40% atmosphere (8% O2), left for 2 min, replenished with hydrogen and finally 10% CO2. Tracs are then removed from these jars and placed into an incubator set to provide a humidified atmosphere of 8% O2, 8.8% CO2 and the remainder nitrogen, at 37° C.
On days 1 and 2 all vials are removed and refed with fresh medium, either containing antibiotics, groups 2 and 4, or not, groups 1 and 3, and replaced into the incubator. On day 5, all coverslips are removed and stained for Lawsonia intracellularis by indirect immunoperoxidase stain incorporating a specific monoclonal antibody. The number of cells on each coverslip, heavily infected with Lawsonia intracellularis (>30 per cell, heavily infected cell=HIC) is used as the main measure of infection. The number of foci of HIC and general cell observations are also noted. HIC in control (group 1), intracellularly active antibiotic assay (group 2), extracelluiarly active antibiotic assay (group 3) and continuous treatment assay (group 4) are compared in triplicate assays, for up to 3 strains each. Some assay are repeated for various inocula strengths. Percentage ratios are calculated after derivation of the mean HIC of the controls relevant to the test group. Mean control HIC is the total number of HIC in control Tracs divided by the number of infected control Tracs. The percentage ratio of test Tracs is then calculated by dividing their HIC value by the mean control HIC, multiplied by 100 to give a percentage.

[3] = Acute toxicity in the rat; assay type: in vivo
Method: The acute toxicity in the rat of the compound of formula I in hydrochloride salt form was determined with single doses of 1000 mg/kg and 2000 mg/kg orally administered to 5 male and 5 female rats per dose group. Deaths occurred within 1-8 days. The LD50 -value obtained is >1000 mg/kg p.o.

[4] = system: weakly beta-hemolytic spirochetes; conditions: WBHS
[5] = system: Lawsonia intracellularis; test: Challenge study: porcine proliferative enteropathy; assay type: in vivo, pigs
[6] = Lawsonia intracellularis, group 2 (intracellular activity)
[7] = Lawsonia intracellularis, group 3 (extracellular activity)

SMILES: C=C[C@]1(C)C[C@@H](OC(=O)CSCCN(CC)CC)[C@]2(C)[C@H](C)CC[C@]3(CCC(=O)[C@H]32)[C@@H](C)[C@@H]1O [tiamulin hydrogen fumarate]
- elimination of S. hyodysenteriae ([1]; tiamulin 35 and 40 ppm, Taylor 1980): eliminate S. hyodysenteriae from faeces but not prevent the recovery from mucosal scrapings
- treatment of swine dysentery ([1]; tiamulin 100 ppm, less severely affected animals, Taylor 1982): successfully used under experimental conditions

SMILES: C=C[C@]1(C)C[C@@H](OC(=O)CSC(C)(C)CNC(=O)[C@H](N)C(C)C)[C@]2(C)[C@H](C)CC[C@]3(CCC(=O)[C@H]32)[C@@H](C)[C@@H]1O [valnemulin hydrochloride, 14-O-[1-[(R)-2-amino-3-methylbutyrylamino]-2-methylpropan-2-ylthioacetyl]mutilin]
- Percentage ratio of Lawsonia intracellularis infection ([2]; 4 μg/ml, group 2 (intracellular activity)): 1.7%
- Percentage ratio of Lawsonia intracellularis infection ([2]; 4 μg/ml, group 3 (extracellular activity)): 0.83% and 1.7%
- Percentage ratio of Lawsonia intracellularis infection ([2]; 4 μg/ml, group 4 (continuous treatment)): 0.8% and 2.5%
- Percentage ratio of Lawsonia intracellularis infection ([2]; 8 μg/ml, group 2 (intracellular activity)): 0.86%
- Percentage ratio of Lawsonia intracellularis infection ([2]; 8 μg/ml, group 3 (extracellular activity)): 0.2% and 1.4%
- Percentage ratio of Lawsonia intracellularis infection ([2]; 8 μg/ml, group 4 (continuous treatment)): 0.5% and 1.4% and 0.2%
- percent of cells infected with Lawsonia intracellularis at 2 µg/mL [2, 6]: 0%
- percent of cells infected with Lawsonia intracellularis at 2 µg/mL [2, 7]: 0%
- percent of cells infected with Lawsonia intracellularis at 8 µg/mL [2, 6]: 0%
- percent of cells infected with Lawsonia intracellularis at 8 µg/mL [2, 7]: 0%
- percent of cells infected with Lawsonia intracellularis at 8 µg/mL ([2]; Lawsonia intracellularis, group 4 (continuous treatment)): 0%
- MIC ([2]; Lawsonia intracellularis, read-out: minimum concentration to cause significant inhibition of growth (<1% growth)): < 2 µg/mL
- tolerability ([3]; in vivo): well tolerated
- LD50 ([3]; in vivo, po, single dose): > 1000 mg/kg
- time of deaths ([3]; oral 1000 and 2000 mg/kg): 1 to 8 days
- strains with MIC at the lowest value [4]: 9 out of 10 strains
- prevention or treatment of disease in words ([5]; low actual doses): prevented or treated the disease in a large proportion of challenged pigs
- pigs with no visible lesions of proliferative enteropathy ([5]; prevention group, 25/75 ppm from two days before challenge): 3 of 7
- pigs with no visible lesions of proliferative enteropathy ([5]; treatment group, 25/75 ppm from seven days after challenge): 5 of 7

From patent US6130250A, “Veterinary use of a pleuromutilin derivative” (priority 1996, dated 2000)
